Test results reported in patent US4840954A, “6,7-disubstituted 1-cycloproply-1,4-dihydro-4-oxo-1,8-naphthyridine-3-carboxylic acids” (Bayer Aktiengesellschaft, priority 1985, dated 1989).
In brackets after ≈: the same amount, converted by molar mass.

Experiments:
Format in all cases: cell-based
E.coli Neum. = experiment: MIC, agar dilution test, E.coli Neum.; details: Escherichia coli, agar dilution test / Isosensitest medium
Description: (§1) As a comparison, the corresponding MIC values of 1-ethyl-6-fluoro-1,4-dihydro-4-oxo-7-(1-piperazinyl)-1,8-naphthyridine-3-carboxylic acid (AT 2266, enoxacin), which is known from European Patent Application 9,425, Japanese Patent Applications 81/45473 [C.A. 95, 115 597 (1981)] and 81/46811 [C.A. 95, 121 142 (1981)], from J. Med. Chem. 27, 292 (1984) or from J. Heterocycl.
(§2) Agar dilution test / Isosensitest medium

Providencia 12012 = experiment: MIC, agar dilution test, Providencia 12012; details: agar dilution test / Isosensitest medium
Description: as §1, §2

Staphyloc. 1756 = experiment: MIC, agar dilution test, Staphyloc. 1756; details: agar dilution test / Isosensitest medium
Description: as §1, §2

Klebsiella 63 = experiment: MIC, agar dilution test, Klebsiella 63; details: agar dilution test / Isosensitest medium
Description: as §1, §2

Proteus mir. 8175 = experiment: MIC, agar dilution test, Proteus mir. 8175; details: agar dilution test / Isosensitest medium
Description: as §1, §2

E.coli 4418 = experiment: MIC, agar dilution test, E.coli 4418; details: Escherichia coli, agar dilution test / Isosensitest medium
Description: as §1, §2

Klebsiella 6179 = experiment: MIC, agar dilution test, Klebsiella 6179; details: agar dilution test / Isosensitest medium
Description: as §1, §2

Staphyloc. 133 = experiment: MIC, agar dilution test, Staphyloc. 133; details: agar dilution test / Isosensitest medium
Description: as §1, §2

E.Coli 455/7 = experiment: MIC, agar dilution test, E.Coli 455/7; details: Escherichia coli, agar dilution test / Isosensitest medium
Description: as §1, §2

Serratia 16040 = experiment: MIC, agar dilution test, Serratia 16040; details: agar dilution test / Isosensitest medium
Description: as §1, §2

Proteus morg. 11006 = experiment: MIC, agar dilution test, Proteus morg. 11006; details: agar dilution test / Isosensitest medium
Description: as §1, §2

Proteus vulg. 1017 = experiment: MIC, agar dilution test, Proteus vulg. 1017; details: agar dilution test / Isosensitest medium
Description: as §1, §2

Pseudomonas W. = experiment: MIC, agar dilution test, Pseudomonas W.; details: agar dilution test / Isosensitest medium
Description: as §1, §2

Row | MIC (E.coli Neum.) [mg/L] | MIC (Providencia 12012) [mg/L] | MIC (Staphyloc. 1756) [mg/L] | MIC (Klebsiella 63) [mg/L] | MIC (Proteus mir. 8175) [mg/L] | MIC (E.coli 4418) [mg/L] | MIC (Klebsiella 6179) [mg/L] | MIC (Staphyloc. 133) [mg/L] | MIC (E.Coli 455/7) [mg/L] | MIC (Serratia 16040) [mg/L] | MIC (Proteus morg. 11006) [mg/L] | MIC (Proteus vulg. 1017) [mg/L] | MIC (Pseudomonas W.) [mg/L] | SMILES
1 | 0.06 (≈ 0.187 µM) | 0.25 (≈ 0.78 µM) | 1 (≈ 3.12 µM) | 0.5 (≈ 1.56 µM) | 0.25 (≈ 0.78 µM) | 0.25 (≈ 0.78 µM) | 2 (≈ 6.24 µM) | 1 (≈ 3.12 µM) | 16 (≈ 49.9 µM) | 32 (≈ 99.9 µM) | 0.125 (≈ 0.39 µM) | 0.125 (≈ 0.39 µM) | 2 (≈ 6.24 µM) | CCn1cc(C(=O)O)c(=O)c2cc(F)c(N3CCNCC3)nc21 [Enoxacin, 1-ethyl-6-fluoro-1,4-dihydro-4-oxo-7-(1-piperazinyl)-1,8-naphthyridine-3-carboxylic acid, reference compound]
2 | ≤ 0.015 | 0.03 (≈ 0.0903 µM) | 0.5 (≈ 1.5 µM) | 0.03 (≈ 0.0903 µM) | 0.125 (≈ 0.376 µM) | 0.03 (≈ 0.0903 µM) | 0.125 (≈ 0.376 µM) | 0.5 (≈ 1.5 µM) | 4 (≈ 12 µM) | 8 (≈ 24.1 µM) | 0.06 (≈ 0.181 µM) | 0.06 (≈ 0.181 µM) | 0.125 (≈ 0.376 µM) | O=C(O)c1cn(C2CC2)c2nc(N3CCNCC3)c(F)cc2c1=O [Example 1, 1-Cyclopropyl-6-fluoro-1,4-dihydro-4-oxo-7-(1-piperazinyl)-1,8-naphthyridine-3-carboxylic acid]
3 | ≤ 0.015 | 0.125 (≈ 0.361 µM) | 0.5 (≈ 1.44 µM) | ≤ 0.015 | 0.25 (≈ 0.722 µM) | 0.03 (≈ 0.0866 µM) | 0.125 (≈ 0.361 µM) | 0.5 (≈ 1.44 µM) | 8 (≈ 23.1 µM) | 8 (≈ 23.1 µM) | 0.03 (≈ 0.0866 µM) | 0.125 (≈ 0.361 µM) | 1 (≈ 2.89 µM) | CC1CN(c2nc3c(cc2F)c(=O)c(C(=O)O)cn3C2CC2)CCN1 (stereo not shown) [Example 2, 1-Cyclopropyl-6-fluoro-1,4-dihydro-7-(3-methyl-1-piperazinyl)-4-oxo-1,8-naphthyridine-3-carboxlyic acid]
4 | ≤ 0.015 | 0.06 | 0.5 | ≤ 0.015 | 0.25 | 0.06 | 0.03 | 0.5 | 8 | 8 | 0.06 | 0.125 | 1 | CN1CCN(c2nc3c(cc2F)c(=O)c(C(=O)O)cn3C2CC2)CC1.Cl [Example 3, 1-Cyclopropyl-6-fluoro-1,4-dihydro-7-(4-methyl-1-piperazinyl)-4-oxo-1,8-naphthyridine-3-carboxylic acid hydrochloride]
